Test results reported in patent publication US20260001883A1, “5H-PYRROLO[2,3-D]PYRIMIDIN-6(7H)-ONE AND CRYSTAL OF SALT THEREOF” (priority 2022, published 2026).
Counter-ions that a name gives are not always drawn.

Columns and labels:
Assay type in all cases: physicochemical
[1] = Solid state stability test (preservation stability, 70° C./75% RH, 2 weeks); settings: for Appearance change / Total amount of analogous substances (%) 70° C./75% RH (closed system) / Total amount of analogous substances (%) 70° C./75% RH (open system) / amount of analogous substances after preservation (in words) / Powder X-ray diffraction pattern (change after preservation): after 2 weeks at 70° C./75% RH; for Total amount of analogous substances (%) 70° C./75% RH (closed system) / Total amount of analogous substances (%) 70° C./75% RH (open system) / Total amount of analogous substances (%) Initial value: HPLC; for Total amount of analogous substances (%) Initial value: before preservation, UV 220 nm
Protocol: The preservation stability of each of the type I crystal, type II crystal, and type III crystal of the free base of Compound (I), which were produced according to the methods described in Examples 1, 2 and 3 above, respectively, was tested under the following conditions. • Preservation conditions: 70° C./75% RH (open system and closed system) • Measuring point: 2 weeks • Preserved amount: about 50 mg • Preservation container: brown glass bottle
The powder X-ray diffraction of the sample after preservation was measured according to the aforementioned method. A change in the amount of analogous substances (the amount of substances detected other than Compound (I)) was measured by weighing out about 1 mg of the sample, dissolving it in about 5 mL of a water/acetonitrile mixed solution (1:1), accurately measuring 5 μL of this solution, and analyzing it by HPLC using the following method. • Column: InertSustain C18, 4.6×150 mm, 3 μm • Column temperature: 40° C. • Column flow rate: 1.0 mL/min • Mobile phase: A—10 mM phosphate buffer (pH 5.5)/acetonitrile (9:1); B—acetonitrile • Detection UV: 220 nm • Gradient: […]
(§1) The crystal of the hydrochloride of Compound (I), the crystal of the maleate of Compound (I), the crystal of ½ malate of Compound (I), and the crystal of the acetate of Compound (I),which were produced according to the methods described in Example 4, Example 5, Comparative Example 1, and Comparative Example 2, were tested in terms of preservation stability under the conditions of Test Example 1.

[2] = Heat stability test (powder X-ray diffraction under heating to 210° C.); settings: heating from 25° C. to 210° C.
Protocol: Using the free base type I crystal, the free base type II crystal, and the free base type III crystal, which were produced according to the methods described in Examples 1, 2 and 3 above, a heat stability test was carried out.
Powder X-ray diffraction measurement was carried out at 25° C., and the temperature was raised to 50° C. over 30 minutes, after which powder X-ray diffraction measurement was carried out. Thereafter, the temperature was further raised to 210° C. at 10° C./10 minutes, and powder X-ray diffraction measurement was then carried out. After that, the temperature was lowered to 25° C. over 30 minutes, and powder X-ray diffraction measurement was then carried out.

[3] = Dynamic moisture adsorption/desorption test; settings: 25° C., humidity 5% RH to 95% RH and back to 5% RH
Protocol: For the test, a VTI-SA+ (TA Instruments) was used. About 10 mg of each of a free base type I crystal, a free base type II crystal, and a […] was weighed, and was placed in a pan. While confirming that the weight fluctuation was within 0.0100% in 5 minutes, the temperature was raised up to 60° C. at 1 degree per minute. If the weight fluctuated, the temperature was maintained for a maximum of 5 hours before proceeding to the next step. Thereafter, the temperature was lowered to 25° C., and the humidity was raised from 5% RH to 95% RH, and was then lowered to 5% RH. At that time, the humidity was changed by 5% RH while confirming that the weight fluctuation was within 0.00100% in 5 minutes. If the weight fluctuated, the humidity was maintained for a maximum of 2 hours before proceeding to the next step.
as §1, with “2.” for “1.”

[4] = listed as crystal of the ½ malate of Compound (I)
[5] = listed as free base type II crystal
[6] = listed as free base type III crystal
[7] = listed as crystal of the acetate of Compound (I)
[8] = listed as crystal of the maleate of Compound (I)
[9] = listed as crystal of the hydrochloride of Compound (I)

| Compound | Appearance change [1] | Total amount of analogous substances (%) 70° C./75% RH (closed system) [1] | Total amount of analogous substances (%) 70° C./75% RH (open system) [1] | Total amount of analogous substances (%) Initial value [1] | Powder X-ray diffraction pattern (change after preservation) [1] | other results |
| --- | --- | --- | --- | --- | --- | --- |
| CC(C)(C)NCCNc1ccc(-c2nnc(C(F)(F)F)o2)nc1C1CCN(c2ncnc3c2C(C)(C)C(=O)N3)CC1 [Crystal of ½ malate, 4-(4-(3-((2-(tert-butylamino)ethyl)amino)-6-(5-(trifluoromethyl)-1,3,4-oxadiazol-2-yl)pyridin-2-yl)piperidin-1-yl)-5,5-dimethyl-5H-pyrrolo[2,3-d]pyrimidin-6(7H)-one] | No significant | 5.2% | 64.0% | 0.4% | – | Appearance change [1, 4]: no change in appearance; amount of analogous substances after preservation (in words) [1, 4]: large amounts of analogous substances |
| CC(C)(C)NCCNc1ccc(-c2nnc(C(F)(F)F)o2)nc1C1CCN(c2ncnc3c2C(C)(C)C(=O)N3)CC1 [Free body type I crystal, 4-(4-(3-((2-(tert-butylamino)ethyl)amino)-6-(5-(trifluoromethyl)-1,3,4-oxadiazol-2-yl)pyridin-2-yl)piperidin-1-yl)-5,5-dimethyl-5H-pyrrolo[2,3-d]pyrimidin-6(7H)-one] | No significant | 0.5% | 0.5% | 0.6% | No significant | change of crystal form under heating (powder X-ray diffraction) ([2]; listed as free base type 1 crystal): no changes were observed in the crystal form; hygroscopicity (moisture adsorption/desorption isotherm) [3]: excellent low hygroscopicity; hygroscopicity (moisture adsorption/desorption isotherm) ([3]; listed as free base type I crystal): low hygroscopicity; Powder X-ray diffraction pattern (change after preservation) ([1]; listed as type I crystal): no change was observed |
| CC(C)(C)NCCNc1ccc(-c2nnc(C(F)(F)F)o2)nc1C1CCN(c2ncnc3c2C(C)(C)C(=O)N3)CC1 [Crystal of acetate, 4-(4-(3-((2-(tert-butylamino)ethyl)amino)-6-(5-(trifluoromethyl)-1,3,4-oxadiazol-2-yl)pyridin-2-yl)piperidin-1-yl)-5,5-dimethyl-5H-pyrrolo[2,3-d]pyrimidin-6(7H)-one] | No significant | 0.3% | 1.1% | 0.3% | – | Appearance change [1, 7]: no change in appearance; amount of analogous substances after preservation (in words) [1, 7]: large amounts of analogous substances |
| CC(C)(C)NCCNc1ccc(-c2nnc(C(F)(F)F)o2)nc1C1CCN(c2ncnc3c2C(C)(C)C(=O)N3)CC1 [Crystal of hydrochloride, 4-(4-(3-((2-(tert-butylamino)ethyl)amino)-6-(5-(trifluoromethyl)-1,3,4-oxadiazol-2-yl)pyridin-2-yl)piperidin-1-yl)-5,5-dimethyl-5H-pyrrolo[2,3-d]pyrimidin-6(7H)-one] | No significant | 0.2% | 0.2% | 0.2% | No significant | hygroscopicity (moisture adsorption/desorption isotherm) ([3]; listed as crystal of the hydrochloride): lower hygroscopicity than the crystal of the ½ malate; Appearance change [1, 9]: no change was observed in appearance; Powder X-ray diffraction pattern (change after preservation) [1, 9]: no changes; amount of analogous substances after preservation (in words) [1, 9]: only small amounts of analogous substances |

Now from value to compound, other results behind:

| Appearance change [1] | Total amount of analogous substances (%) 70° C./75% RH (closed system) [1] | Total amount of analogous substances (%) 70° C./75% RH (open system) [1] | Total amount of analogous substances (%) Initial value [1] | Powder X-ray diffraction pattern (change after preservation) [1] | Compound | other results |
| --- | --- | --- | --- | --- | --- | --- |
| No significant | 0.5% | 0.6% | 0.5% | No significant | CC(C)(C)NCCNc1ccc(-c2nnc(C(F)(F)F)o2)nc1C1CCN(c2ncnc3c2C(C)(C)C(=O)N3)CC1 [Free body type II crystal, 4-(4-(3-((2-(tert-butylamino)ethyl)amino)-6-(5-(trifluoromethyl)-1,3,4-oxadiazol-2-yl)pyridin-2-yl)piperidin-1-yl)-5,5-dimethyl-5H-pyrrolo[2,3-d]pyrimidin-6(7H)-one] | change of crystal form under heating (powder X-ray diffraction) [2, 5]: new peaks appeared; hygroscopicity (moisture adsorption/desorption isotherm) [3, 5]: low hygroscopicity; Powder X-ray diffraction pattern (change after preservation) ([1]; listed as type II crystal): no change was observed |
| No significant | 0.7% | 0.8% | 0.5% | No significant | CC(C)(C)NCCNc1ccc(-c2nnc(C(F)(F)F)o2)nc1C1CCN(c2ncnc3c2C(C)(C)C(=O)N3)CC1 [Frcc body type III crystal, 4-(4-(3-((2-(tert-butylamino)ethyl)amino)-6-(5-(trifluoromethyl)-1,3,4-oxadiazol-2-yl)pyridin-2-yl)piperidin-1-yl)-5,5-dimethyl-5H-pyrrolo[2,3-d]pyrimidin-6(7H)-one] | change of crystal form under heating (powder X-ray diffraction) [2, 6]: new peaks appeared; hygroscopicity (moisture adsorption/desorption isotherm) [3]: excellent low hygroscopicity; hygroscopicity (moisture adsorption/desorption isotherm) [3, 6]: low hygroscopicity; Powder X-ray diffraction pattern (change after preservation) ([1]; listed as type III crystal): no change was observed |
| No significant | 0.1% | 0.1% | 0.1% | No significant | CC(C)(C)NCCNc1ccc(-c2nnc(C(F)(F)F)o2)nc1C1CCN(c2ncnc3c2C(C)(C)C(=O)N3)CC1 [Crystal of maleate, 4-(4-(3-((2-(tert-butylamino)ethyl)amino)-6-(5-(trifluoromethyl)-1,3,4-oxadiazol-2-yl)pyridin-2-yl)piperidin-1-yl)-5,5-dimethyl-5H-pyrrolo[2,3-d]pyrimidin-6(7H)-one] | hygroscopicity (moisture adsorption/desorption isotherm) ([3]; listed as crystal of the maleate): low hygroscopicity; Appearance change [1, 8]: no change was observed in appearance; Powder X-ray diffraction pattern (change after preservation) [1, 8]: no changes; amount of analogous substances after preservation (in words) [1, 8]: only small amounts of analogous substances |
